Laboratory results reported in US7417072B2, “Blockade of Pin1 prevents cytokine production by activated immune cells” (Wisconsin Alumni Research Foundation, priority 2005, dated 2008).
Residues, ends and D or L forms follow the SMILES beside them. *: point of attachment. Cbz = O=C(OCc1ccccc1)*

Key:
eosinophils (Eos) = test: Eosinophil survival, cell viability at day 4; type: cell-based, human; details: for Eos survival: HA-activated Eos
Description: In FIG. 2C, cells were untreated (−/− lanes on left) or incubated for 4 h with HA atone, HA plus varying concentrations (160 or 320 nM) of TAT-conjugated green fluorescent protein (TAT-GFP) or TAT-conjugated Pin1 domains (TAT-wwPin1) and analyzed as in FIG. 2A. In FIG. 2D, control (−/−), HA (100 μg/ml), rhGM-CSF (100 pg/ml), HA or GM-CSF plus TAT-GFP (160 nM) or HA or GM-CSF plus TAT-wwPin1 (160 nM) treated Eos were cultured for 4 days prior to cell viability assay as disclosed in Example 2 below.
To this end, peripheral blood was obtained by venipuncture from patients who had allergic rhinitis or asthma; patients were not symptomatic at the time blood was obtained. Peripheral blood eosinophils (Eos) were purified using a negative immunomagnetic procedure as described in Esnault and Malter (2001, J. Immunol. 166:4658-96). After isolation, Eos were maintained in vitro in RPMI 1640 medium (Gibco Life Technologies, Grand Island, N.Y.) with 10% fetal calf serum (Gibco Life Technologies, Grand Island, N.Y.) and 50 μg/ml gentamicin (Gibco Life Technologies, Grand Island, N.Y.) at 37° C. in 5% CO2, and were metabolically labeled and activated by treatment under these culture conditions with 100 μg/ml HA (˜5 hours total, see below).
The mechanism of Eos death was evaluated by western blotting.

GM-CSF mRNA = GM-CSF mRNA levels in eosinophils, RT-PCR/Southern blot; type: cell-based, human
Description: In FIG. 2A, Eos were treated as in FIG. 1A for 4 h prior to lysis with TriReagent and RT-PCR/Southern blot analysis for GM-CSF mRNA. Gel electrophoresis of GM-CSF products and control β-actin RT-PCR products are shown. In FIG. 2B, cells were treated with HA for 4 h and then juglone (1 μM) was added at the indicated times before harvest and RT-PCR analysis, where GM-CSF or β-actin mRNA expression were analyzed as above. In FIG. 2B, “C,” refers to PCR reaction mixtures without added cDNA. In FIG. 2C, cells were untreated (−/− lanes on left) or incubated for 4 h with HA atone, HA plus varying concentrations (160 or 320 nM) of TAT-conjugated green fluorescent protein (TAT-GFP) or TAT-conjugated Pin1 domains (TAT-wwPin1) and analyzed as in FIG. 2A. […] In FIG. 2E, eosinophils were treated for 4 h with HA or HA plus juglone (1 μM, 1 h prior to harvest) prior to the addition of actinomycin D (5 μg/ml) and cells harvested at the indicated times for RT-PCR/Southern blot analysis. In these experiments, PCR was performed for 30 (HA-treated cells) or 33 (HA plus juglone-treated cells) cycles, respectively.
In FIG. 3A, Eos were untreated (−/−), treated with HA or HA plus juglone (1 μM) for 4 h. […] In FIG. 3C, cells were untreated (−/−/−) treated for 4 h with HA alone, HA plus juglone (10 min before harvest) or HA plus 20 μM or 100 μM MG132 (4 h) plus juglone (10 min before harvest), Cell lysates were immunoblotted with the antibodies shown. […] In FIG. 3D, Eos were treated as described for FIG. 3C except that only 20 μM MG132 was used. Cells were lysed with TriReagent for total RNA isolation prior to RT-PCR/Southern blot analysis.
To characterize the mechanisms connecting hyaluronic acid (HA) activation to GM-CSF expression and eosinophil survival, GM-CSF mRNA decay was measured.
In order to assess this possibility, GM-CSF mRNA levels were measured by RT/PCR-Southern blot hybridization experiments.

Pin1 and AUF1 = Pin1 and AUF1 protein levels in eosinophils, immunoprecipitation/immunoblot; type: cell-based, human; details: MG132 4 h, juglone 10 min before harvest
Description: In FIG. 3A, Eos were untreated (−/−), treated with HA or HA plus juglone (1 μM) for 4 h. Cell lysates were immunoprecipitated with anti-Pin1 antibody followed by immunoblotting with anti-AUF1 or anti-Pin1 antibodies. Nonimmune IgG was used as a negative control while HeLa cell extracts were used as a positive control (“C”). In FIG. 3B, immunoblots of cytoplasmic protein from Eos treated for 4 h with HA or co-treated with juglone (1 μM) for the indicated times before harvest. In FIG. 3C, cells were untreated (−/−/−) treated for 4 h with HA alone, HA plus juglone (10 min before harvest) or HA plus 20 μM or 100 μM MG132 (4 h) plus juglone (10 min before harvest), Cell lysates were immunoblotted with the antibodies shown. Lane “C” is a HeLa cell lysate used as a positive control. In FIG. 3D, Eos were treated as described for FIG. 3C except that only 20 μM MG132 was used.
The effects of HA and juglone treatment on the interactions between AUF1 and Pin1 were then examined.
To address this possibility, Eos were exposed to the proteasome inhibitor MG132 (4 h) (Sigma) and juglone (10 min before harvest) and lysates immunoblotted.

p45 and p40 AUF1 = test: Anti-phosphoserine immunoblot of eosinophil cytoplasmic extracts; type: cell-based, human; details: 50 μM added 30 min before harvest
Description: Cells were untreated (−/−/−), treated with HA alone (4 h), HA (4 h) plus juglone (1 μM added 10 min before harvest) or HA plus Erk inhibitor PD98059 (PD) (50 μM added 30 min before harvest). Cytoplasmic extracts were immunoblotted with anti-phosphoserine, anti-AUF1 or anti-Pin1 antibody as shown.
As the association of Pin1 and AUF1 was unaffected by HA (FIG. 2A) despite the loss of GM-CSF mRNA from the protein complex (FIGS. 4A & 4B) it was hypothesized that either AUF1 and/or Pin1 was modified by HA mediated signaling. Phorbol esters trigger the dephosphorylation of Ser^83 and Ser^87 of p40 AUF1 was concomitant with the stabilization of IL-1β and TNF-α mRNAs (Wilson et al. 2003, J. Biol. Chem. 278:33029-33038). Therefore, cytoplasmic extracts from control or HA-treated Eos were immunoblotted with anti-phosphoserine, anti-AUF1 or anti-Pin1 antibodies.

[1] = system: peripheral blood mononuclear cells (PBMC); test: Cytokine mRNA accumulation in activated PBMC, northern blot / qPCR; type: cell-based, human; details: mitogen stimulated, 4 h, juglone 1 μM
Description: PBMCs were isolated from healthy donors by Percoll® gradient centrifugation of heparinized whole blood. Cells were cultured in RPMI 1640 media supplemented with 10% fetal calf serum (FCS) at 1×10^6 cells/ml prior to the addition of PMA (20 ng/ml) and PHA (5 ug/ml) (P/P) or PMA, PHA and juglone (1 uM) (P/P/J); “R” designates the control lane without addition of additional substances. After 4 h, cells were lysed and 10 ug of recovered RNA northern blotted and hybridized with probes shown along the left side of the Figure. “A” and “B” refer to results with 2 different donors.
After 4 h, RNA was isolated from the cells and used for quantitative PCR (qPCR) for the cytokine mRNAs shown. Data are presented as % inhibition in samples with juglone.
Thus peripheral blood mononuclear cells (˜70% T cells, 20% B cells, 5-10% macrophages/monocytes, obtained by phlebotomy of normal donors) were incubated with optimal concentrations of mitogens (phorbol ester (20 ng/ml), and PHA (40 ug/ml), both from Sigma) and cytokine in RNA levels were measured by northern blot or real time RT/PCR (qPCR) and cytokine secretion by ELISA. […] IL-2, IL-8, TNFα, IFNγ and GM-CSF mRNAs were evaluated first, since these cytokines all share 3′ UTR AU-rich elements with GM-CSF.

purified T cells = test: Cytokine mRNA in purified T cells activated with anti-CD3/anti-CD28, qPCR; type: cell-based, human; details: anti-CD3/anti-CD28, juglone 1 μM added along with antibody, 4 hours
Description: Purified T cells were prepared by negative selection of PBMC (T cells>98% pure based on flow cytometry) and activated with a combination of anti-CD3 and anti-CD28 antibodies. Juglone was added at 0.1 or 1 μM as shown along with the antibodies or at various times (as shown) at 1 μM after the antibodies.
Purified T cells were prepared by negative selection of PBMC (T cells>98% pure based on flow cytometry) and activated with a combination of anti-CD3 and anti-CD28 antibodies. Juglone was added at 0.1 or 1 μM as shown along with the antibodies. After 4 hours total incubation time, cells were lysed and mRNA used for RT-qPCR for the cytokine mRNAs shown “−” refers to control cells activated but not exposed to juglone.
As PBMC are heterogeneous, this cell population was fractionated into T cells by negative selection (as described in Sedgwick et al., 2003, Am J Respir Cell Mol Biol. 29:702-9). […] These were then activated with anti-CD3 and anti-CD28 antibodies (obtained from Santa Cruz Biotech), and the effects of Pin1 blockade on cytokine gene expression assessed by qPCR. […] Juglone (1 μM) added along with antibody reduced GM-CSF mRNA by between 80-95%.

rat splenocytes [2] = test: IFN-γ and IL-2 secretion by activated splenocytes, ELISA; type: cell-based; details: I/P stimulated spleen cells
rat splenocytes [3] = test: Splenocyte viability, propidium iodide flow cytometry; type: cell-based; details: 24 hours
Description: In FIG. 14A, mRNAs for IFN-γ, IL-2, TNF-α, CXCL-10 and TGF-β were analyzed in rat splenocytes by reverse transcription, qPCR. The ionomycin/PMA stimulated sample was normalized to 100 and others expressed as a % of that value. […] Cells were stained with propidium iodide and analyzed by flow cytometry. The results shown are representative of 3 experiments. […] The data are averages±SEM of 3 independent experiments using splenocytes of untreated healthy animals.
Therefore, Pin1 blockade suppressed proliferation as well as the elaboration of proinflammatory cytokines by activated rat splenocytes.

[4] = system: cytokine expression and immune cells of transplant recipients; test: Immunologic analysis of lung transplant recipients (blood, spleen, BAL, lung, mediastinal lymph nodes)
Description: Splenocytes (2000) from control or juglone-treated transplant recipients were activated with ionomycin (1 μM) and PMA (20 ng/ml) for 3 days prior to addition of anti-IL-2 or IFN gamma antibodies and color development and counting.
Spleens were processed 8 days after transplantation from untreated or juglone-treated rats for mRNA isolation and RT-qPCR for IL-2, IFN or TNF alpha. Juglone treated mRNA levels were set to 100% in these analyses.
Data are shown as the average±SEM (n=4 rats) of 3 experiments 7 days after transplantation.
The values in untreated controls were normalized to 100% and data shown represent % change in juglone treated samples. The data shown are an average±SEM (n=4 rats) of 4 experiments. * denotes p<0.05 from control samples. […] Values are normalized to control (100%).
Cytokine elaboration was measured by control, activated or juglone treated activated splenocytes as follows. IFNγ secretion by splenocytes was evaluated by ELISPOT (R&D Systems, Minneapolis, Minn.) as described by the manufacturer. Triplicates of serial dilutions of cells were cultured with PMA (10 ng/ml) plus iononycin (1 μM) for 48 hours. The concentration of IFN-γ and IL-2 in the BAL fluid was determined using an ELISA kit (R&D Systems).
Next, immunologic changes between control and juglone treated transplant recipients were analyzed. […] Splenocytes harvested from control versus untreated animals (8 days after transplant) were stimulated with optimal concentrations of PMA (20 ng/ml) and ionomycin (1 μM) and analyzed by Elispot for IL-2 and IFNγ expression.
Levels of IFN-γ and IL-2 were as measured, as described above, in the animals one week after transplantation.
Cytokine mRNAs from splenocytes in juglone treated animals were also examined.

In the case of `C=CC[C@@H]1/C=C(\C)C[C@H](C)C[C@H](OC)[C@H]2O[C@@](O)(C(=O)C(=O)N3CCCC[C@H]3C(=O)O[C@H](/C(C)=C/[C@@H]3CC[C@@H](O)[C@H](OC)C3)[C@H](C)[C@@H](O)CC1=O)[C@H](C)C[C@@H]2OC` [FK506], the “Effect on HA-enhanced Eos survival” value (eosinophils (Eos); HA 100 μg/ml, TAT proteins 160 nM) is reported as “no effect”.

For `CC(C)C[C@@H](C=O)NC(=O)[C@H](CC(C)C)NC(=O)[C@H](CC(C)C)NC(=O)OCc1ccccc1` [MG132] (Cbz-Leu-Leu-Leu-aldehyde), the “GM-CSF mRNA in Eos treated with MG132 alone” value (GM-CSF mRNA) was “no observable effect”, the “GM-CSF mRNA in Eos treated with HA, MG132 and juglone” value (GM-CSF mRNA; 20 μM MG132 4 h, juglone 10 min before harvest) was “antagonized juglone-induced decreases of GM-CSF mRNA” and the “Juglone-induced Pin1 degradation” value (Pin1 and AUF1) was “only partially prevented Pin1 degradation”. For the same compound, the “Juglone-induced p45, p42 and p40 AUF1 degradation” value (Pin1 and AUF1) was “completely blocked”.

For `COc1cccc(-c2cc(=O)c3ccccc3o2)c1N` [PD98059], the “GM-CSF mRNA levels in HA-treated Eos” value (GM-CSF mRNA; HA 4 h, CsA 1.6 μM or 16 μM, TAT proteins 160 or 320 nM) was “failed to accumulate”, the “Time to effect on GM-CSF mRNA after addition of the inhibitor” value (GM-CSF mRNA; HA-activated Eos) was 10 to 30 min and the “HA-increased phosphorylation of p45 and p40 AUF1” value (p45 and p40 AUF1) was “partially antagonized”.

With `O=C1C=CC(=O)c2c(O)cccc21` [juglone] the Eos survival (eosinophils (Eos); 0.1 μM) was 5%, the Eos survival (eosinophils (Eos); 1.0 μM) was 5% and the “Suppression of cytokine mRNAs by qPCR” value [1] was 65-90%. The “Reduction of GM-CSF mRNA in purified T cells” value (purified T cells) was 80-95%, the “Concentration of maximal effect on cytokine secretion” value (rat splenocytes [2]) was 1 µM and the “Apoptosis in I/P versus I/P/juglone treated splenocytes” value (rat splenocytes [3]) was “equivalent levels of apoptosis”. The “Reduction in number of splenocytes expressing IL-2 and IFNγ by Elispot” value ([4]; 8 days after transplant, PMA 20 ng/ml and ionomycin 1 μM) was 60-70%, the “Absolute counts and ratios of peripheral blood CD4+, CD8+ cells and γ/δ lymphocytes” value ([4]; after 1 week of juglone) was “largely unaffected” and the “Fewer total BAL cells than untreated controls” value ([4]; juglone 1 mg/kg) was 50%. The “IL-2 and IFN-gamma mRNA in lungs compared with no treatment controls” value ([4]; juglone 1 mg/kg) was “about 35%”.
